{
  "source": "patent US6117849A",
  "about": "“S-(+)-adenosylmethionine and 3'-azido-2', 3'-dideoxy-nucleoside complexes as potent inhibitors of HIV-replication” (Symbio Herborn Group GmbH & Co., priority 1996, dated 2000)",
  "key": {"IL-β, IL-2": {"system": "IL-β, IL-2", "test": "Cytokine biosynthesis after stimulation of lymphocytes", "format": "cell-based", "details": "after phytohemagglutination stimulation"}, "thymidylate kinase": {"system": "thymidylate kinase", "test": "Inhibition of thymidylate kinase, in vitro", "format": "biochemical"}, "[1]": {"molecular_target": "T1, reverse transcriptase (RT) (HIV-1 M:B_HXB2R, UniProt P04585)", "details": "read-out: apparent Ki (recalculated, corrected for DTT); recalculated from literature", "text": "The disclosed inhibitory concentrations of SAM is meant as the apparent concentration of SAM, which inhibits under their in vitro assay conditions 50% of the RT activity. […] Inhibitory experiments using DTT, e g. for protecting sulfhydryl groups of the enzyme (RT), in their assay have to be omitted or corrected for, respectively, since DTT act as a strong reducing agent, particularly for SAM or SAM-tosylate-bis-sulfate which potentiates the reduction due to the sulfonium group which is being reduced to the sulfinium group, or to S-S-complexes comprising of SAM and DDT, respectively. […] Note, the determined inhibitory concentrations are not the ones which can be correlated to the ones according to Michaelis-Mentenkinetics."}, "[2]": {"system": "RT (triphosphatase activity)", "test": "Triphosphatase activity in presence of RT and phosphate", "format": "biochemical, HIV", "details": "in the presence of phosphate (Pi)", "excerpt": "Furthermore the efficiency of such molecular complexes is also seen on the rate at which they are metabolized intra cellularly to the corresponding free ddNMP available to be further transformed to the triphosphate derivative active on the RT, which is enhanced due to these molecular complexes as shown through the kinetics in-vitro and in-vivo. In order to make this transformation feasible, the unique and stable molecular conformation of these complexes and their solvation facilitates the inhibitory and regulatory effects on RT, lipid penetration and inhibitory effects on the growing infective RNA or DNA polymeric chains. The avoidance of e.g. AZT-monophosphate accumulation, similarly also for other ddN N3 compounds, which causes severe inhibition of cellular dTMP kinase, resulting in a blockade of further phosphorylation steps, while on the contrary, the disclosed molecular complexes, appear to be unable to induce the same effects and is clearly incapable of inhibiting their own phosphorylation. This is completely different from those of the single administration of the components, e.g. SAM and ddN≈N3. […] This is also endorsed by the findings that the kinetics of inhibition on the RT enzyme is influenced by the presence of inorganic phosphate resulting in restoring active ATP during the presence of SAM. […]"}, "HIV-1 isolate of HIV IIB": {"system": "HIV-1 isolate of HIV IIB", "test": "HIV replication in de novo infected lymphocyte cultures, viral core protein p24 endpoint", "format": "cell-based, HIV-1 (in human peripheral blood lymphocytes)", "details": "FIG. 1, p24", "protocol": "For this purpose, SAM has been tested in a dose response titration ranging from 1000 μg/mL to 10 μg/mL final concentrations for the ability to inhibit HIV replication in de novo infected cells. Endpoint in this assay was the quantitative determination of the concentration of the viral core protein p24 as described by Mueller et al. (Mueller, Ch., Moritz, R., Prigge, G., Weitzel, D., Kunze, R., Kage, A., Koettgen, E., Fresenius Z. Anal. Chem.,330, 352-353, 1988). […] The toxicity testing of cellular proliferation was performed according to J. Mosmann (J. Immunological Methods, 65, 55-63, 1983). […] All experiments were carried out in triplicate cultures, including those for the various concentrations of the molecular complexes tested.--The lymphocytes were infected with a standardized preparation of HIV-1 isolate of HIV IIB. The cells were sedimented by low speed centrifugation, the sediment resuspended in the assay buffer (standard), and the resuspended cells were inoculated by adjusting to the following conditions: 100 ng of viral core protein p24/mL and 3200 pg HIV RNA/mL, respectively. Normally 3×10^8 lymphocytes were suspended in 1 mL if the HIV inoculum, and incubated at 37° C. for 60 minutes. After washing the cells twice with 50 mL of culture medium the cells were resuspended at a concentration of 3×10^6 cells/mL in culture medium which contains 10 units/mL of human recombinant interleukin-2. 100 μL of this cell suspension were added to 100 μL of the pre-diluted solution of the compounds to be tested, without adding any salt or protein. The entire assay was cultivated in humidified atmosphere in the presence of 5% CO2 at 37° C. After the 4th day of infection the viral replication was determined in the lymphocyte cultures. The end point of the titration was the determination of the viral core protein p24 in the supernatant of each of the lymphocyte cultures. 150 μL of the supernatant were removed and transferred to a vial containing 50 μL/well SDS at a final concentration of 0.08% (w/w). The concentration of the synthesized p24 by the HIV infected cells was determined according to Mueller et al., using recombinant p24 as a standard for calibration."}, "[3]": {"molecular_target": "T1, reverse transcriptase (RT)", "format": "biochemical", "design": "A2: RT in cord-blood lymphocyte cultures infected with HIV from an AIDS patient", "protocol": "The second in-vitro test uses the enzymatic activity of RT, testing the kinetic and inhibitory action of the molecular complexes. The cloning of the RT in biologically active form made it possible to have large quantities of the RT enzyme available for these studies (RT from Sigma, lot # R 9376).\nThe steady state reaction conditions for RT are chosen that approximate physiological conditions are met: pH 7.45 (37° C.), ionic strength of 150 mM, routinely a buffer was employed consisting of 50 mM TRIS-HCl, 100 mM KCl, 5 mM MgCl2, the addition of 10 μg/mL bovine serum albumin were included. […] The aforementioned precautions designed to avoid potential reduction of SAM in the presence of DTT are taken into accounts to preclude any distortions of the kinetic behavior of the RT enzyme in the presence of the various substrates e.g. as our molecular compounds. […] The enzyme concentrations of RT was approx. 20 nM, T-P (template-primer) […] and 25 μM of [^3 H]-dNTP (assay conditions are modified fro those of Mayunder et al., J. biol. Chem.,263, 15657, 1988). […] In case both parameters are effected to the same extent, then the inhibition is uncompetitive. In order to facilitate the difference between SAM kinetics and those for the molecular complexes we studied first SAM kinetics and subsequently the kinetics in the presence of the molecular complexes. […] Similar experiments have been carries out with dGTP.\nThe enzyme was assayed with 50 nM primer sites on poly (rA): oligo (dT), and variable concentrations of [^3 H] dTP as substrates in a reaction mixture as described above at pH 7.5 (37° C.)."}, "HIV": {"system": "HIV", "test": "TPA- or cytokine-stimulated HIV replication/expression", "format": "cell-based", "details": "in vitro"}, "[4]": {"details": "human, in vivo"}},
  "data": [
    {"molecule": "C[S+](CC[C@H](N)C(=O)O)C[C@H]1O[C@@H](n2cnc3c(N)ncnc32)[C@H](O)[C@@H]1O", "note": "(single isomer, unassigned; (+)) [SAM, (+)-5'-[(3-amino-3-carboxypropyl)methylsulfinio]-5'-deoxyadenosine]", "values": [
      {"measurement": "cytokine biosynthesis (IL-β, IL-2)", "setting": "IL-β, IL-2", "result": "influenced"},
      {"measurement": "inhibition of thymidylate kinase", "setting": "thymidylate kinase", "result": "reversal of the inhibition of the thymidylate kinase"},
      {"measurement": "Ki", "setting": "[1]", "result": "200 to 250", "unit": "nM"},
      {"measurement": "triphosphatase activity", "setting": "[2]", "result": "stimulated"},
      {"measurement": "fraction unbound", "setting": "in vitro", "result": "0.95 to 0.97"},
      {"measurement": "inhibition of HIV replication", "setting": "HIV-1 isolate of HIV IIB", "result": "inhibited HIV replication in a dose dependent response"},
      {"measurement": "stability in RT assay with DTT", "setting": "[3]", "result": "destroy SAM"},
      {"measurement": "cytokine-activation of HIV expression", "setting": "HIV", "result": "does not inhibit cytokine-activation of HIV expression in vitro"},
      {"measurement": "CSF peak of SAM relative to plasma", "setting": "[4]", "result": "lower and more prolonged for healthy patients"}
    ]}
  ]
}
